Data published in ChEMBL document CHEMBL5096202, “Carbon-silicon switch led to the discovery of novel synthetic cannabinoids with therapeutic effects in a mouse model of multiple sclerosis” (Eur J Med Chem, 2021).

Target: T1, Cannabinoid receptor 1 (Homo sapiens, UniProt P21554)
Assay: Displacement of [3H]-CP55940 from recombinant human CB1 receptor expressed in CHO cells assessed as inhibition constant incubated for 120 mins by radioligand binding assay
Type: cell-based
Settings: not given

T1 sequence (P21554 whole entry): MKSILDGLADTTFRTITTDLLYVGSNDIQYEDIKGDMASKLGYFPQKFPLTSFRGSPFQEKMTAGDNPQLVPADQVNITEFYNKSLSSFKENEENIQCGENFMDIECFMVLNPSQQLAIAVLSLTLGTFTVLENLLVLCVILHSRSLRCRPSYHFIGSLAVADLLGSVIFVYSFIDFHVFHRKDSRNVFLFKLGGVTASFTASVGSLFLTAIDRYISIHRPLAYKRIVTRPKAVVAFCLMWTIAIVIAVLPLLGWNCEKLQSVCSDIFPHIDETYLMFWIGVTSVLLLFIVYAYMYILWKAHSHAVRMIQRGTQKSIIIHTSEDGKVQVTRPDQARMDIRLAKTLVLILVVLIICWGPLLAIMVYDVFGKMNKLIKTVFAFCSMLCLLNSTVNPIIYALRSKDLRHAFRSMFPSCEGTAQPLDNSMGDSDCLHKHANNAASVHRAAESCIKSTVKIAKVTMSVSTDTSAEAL

`CCCCCC[Si](C)(C)c1cc(O)c(C2CCCCC2)c(OC)c1` and `CCCC[Si](C)(C)c1cc(OC)c([C@H]2C=C(CO)[C@H]3C[C@@H]2C3(C)C)c(OC)c1` are within 1.5-fold of each other in Ki: 448 nM for the first, 454 nM for the second.

With `C=C(C)[C@@H]1CCC(C)=C[C@H]1c1c(O)cc([Si](C)(C)CCCC)cc1O` the Ki was 15 nM.

Target: T2, Cannabinoid receptor 2 (Homo sapiens, UniProt P34972)
T2 sequence (P34972 whole entry): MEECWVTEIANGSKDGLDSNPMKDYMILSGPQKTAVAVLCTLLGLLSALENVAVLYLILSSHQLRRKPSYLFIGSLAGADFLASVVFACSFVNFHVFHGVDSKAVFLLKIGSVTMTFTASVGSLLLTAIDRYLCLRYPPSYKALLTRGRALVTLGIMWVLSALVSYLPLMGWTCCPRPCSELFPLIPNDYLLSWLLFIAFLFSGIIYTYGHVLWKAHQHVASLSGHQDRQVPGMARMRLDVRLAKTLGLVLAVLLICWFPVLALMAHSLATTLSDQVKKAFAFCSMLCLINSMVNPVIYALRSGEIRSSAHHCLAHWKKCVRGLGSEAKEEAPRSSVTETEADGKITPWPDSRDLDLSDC
Assay: Agonist activity at recombinant human CB2 receptor expressed in CHO cells assessed as inhibition of forskolin-induced cAMP accumulation by measuring maximum efficacy preincubated for 15 mins followed by forskolin stimulation and measured after 15 mins by HTRF assay relative to control
Type: functional, cell-based
Settings: filed as agonist, time 30.0 min

Going from `CCCCCC[Si](C)(C)c1cc(O)c(C2CCCCC2)c(OC)c1` to `CCCC[Si](C)(C)c1cc(OC)c([C@H]2C=C(CO)[C@H]3C[C@@H]2C3(C)C)c(OC)c1`, the Emax falls from 92.7% to 83.6%.

With `C=C(C)[C@@H]1CCC(C)=C[C@H]1c1c(O)cc([Si](C)(C)CCCC)cc1O` the Emax was 82.7%.

Target: T2, Cannabinoid receptor 2
Assay: Displacement of [3H]-CP55940 from recombinant human CB2 receptor expressed in CHO cells assessed as inhibition constant incubated for 120 mins by radioligand binding assay
Type: cell-based
Settings: not given

`CCCCCC[Si](C)(C)c1cc(O)c(C2CCCCC2)c(OC)c1` and `CCCC[Si](C)(C)c1cc(OC)c([C@H]2C=C(CO)[C@H]3C[C@@H]2C3(C)C)c(OC)c1` are within 1.5-fold of each other in Ki: 165 nM for the first, 227 nM for the second.

Compound `C=C(C)[C@@H]1CCC(C)=C[C@H]1c1c(O)cc([Si](C)(C)CCCC)cc1O` has a Ki of 7.25 nM.

Target: T1, Cannabinoid receptor 1
Assay: Agonist activity at recombinant human CB1 receptor expressed in CHO cells assessed as inhibition of forskolin-induced cAMP accumulation by measuring maximum efficacy preincubated for 15 mins followed by forskolin stimulation and measured after 15 mins by HTRF assay relative to control
Type: functional, cell-based
Settings: filed as agonist, time 30.0 min

First: CCCCCC[Si](C)(C)c1cc(O)c(C2CCCCC2)c(OC)c1
Second: C=C(C)[C@@H]1CCC(C)=C[C@H]1c1c(O)cc([Si](C)(C)CCCC)cc1O
The Emax of the first is lower: 73.9% for the first, 94.6% for the second.

Target: T1, Cannabinoid receptor 1
Assay: Agonist activity at recombinant human CB1 receptor expressed in CHO cells assessed as inhibition of forskolin-induced cAMP accumulation preincubated for 15 mins followed by forskolin stimulation and measured after 15 mins by HTRF assay
Type: functional, cell-based
Settings: not given

`CCCCCC[Si](C)(C)c1cc(O)c(C2CCCCC2)c(OC)c1` and `C=C(C)[C@@H]1CCC(C)=C[C@H]1c1c(O)cc([Si](C)(C)CCCC)cc1O` are within 1.5-fold of each other in EC50: 554 nM for the first, 403 nM for the second.

Target: T2, Cannabinoid receptor 2
Assay: Agonist activity at recombinant human CB2 receptor expressed in CHO cells assessed as inhibition of forskolin-induced cAMP accumulation preincubated for 15 mins followed by forskolin stimulation and measured after 15 mins by HTRF assay
Type: functional, cell-based
Settings: not given

Going from `CCCCCC[Si](C)(C)c1cc(O)c(C2CCCCC2)c(OC)c1` to `CCCC[Si](C)(C)c1cc(OC)c([C@H]2C=C(CO)[C@H]3C[C@@H]2C3(C)C)c(OC)c1`, the EC50 rises from 76.4 nM to 899 nM (12-fold). The first is the more potent here.

Compound `C=C(C)[C@@H]1CCC(C)=C[C@H]1c1c(O)cc([Si](C)(C)CCCC)cc1O` has an EC50 of 190 nM.
